According to patent USRE48335E1, “Polymyxin derivatives as antimicrobial compounds” (priority 2014, dated 2020):
Values after ≈ are worked out from the molar mass of the structure shown. Like-named read-outs stand apart in the source and are kept apart here. Positions of bridges follow the written chain, without caps; N, C: chain ends. Non-standard residues stand in square brackets, D forms with d. Residues, ends and D or L forms follow the SMILES beside them. *: point of attachment. Phenylacetyl(3-Cl) = O=C(Cc1cccc(Cl)c1)*; Phenylacetyl(4-Cl) = O=C(Cc1ccc(Cl)cc1)*; X13 = O=C(Cc1ccc(Cl)cc1Cl)*; Nonanoyl = CCCCCCCCC(=O)*; X14 = Cc1ccc(C(=O)*)cc1C; Dab = NCC[C@H](N)C(=O)O; Abu = CC[C@H](N)C(=O)O; Dap = NC[C@H](N)C(=O)O

How the values were obtained:
[1] = test system: Enterobacter cloacae
How it was run: (§1)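 Lipopeptide TFA salts are serially diluted in cation-adjusted Mueller-Hinton broth and inoculated per the CLSI M100-S18 broth microdilution method. The MIC is then recorded, with polymyxin B sulphate included as a control.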

[2] = test system: Acinetobacter baumannii
How it was run: as §1

[3] = test system: Pseudomonas aeruginosa
How it was run: as §1

[4] = test system: Klebsiella pneumoniae
How it was run: as §1

[5] = test system: P. aeruginosa ATCC 27853; test: In vivo efficacy in mouse blood infection model (neutropenic Swiss mice); settings: compound, free base 4 mg/kg intravenously 2 h after inoculation, blood at 4 h
Protocol: P. aeruginosa ATCC 27853, A. baumannii ATCC 19606 and K. pneumoniae FADDI-KP032 were subcultured on nutrient agar plates. One colony of each bacterial strain was dispersed in 10-mL CAMHB and incubated overnight. On day 2, an aliquot (0.2 mL) of each overnight culture suspension was dispersed in 20-mL CAMHB and incubated for 1.5-2.5 h for production of early log-phase growth bacterial culture. The bacteria in the early log-phase growth suspension were concentrated by centrifugation (3,220 g for 10 min) and re-suspended in sterile 0.9% saline for inoculation into mice. The bacterial cell concentration (colony forming unit [CFU]/mL) in saline was estimated by determining the optical density (OD) of the suspension at 600 nm, and confirmed by plating the suspension on nutrient agar plates. Swiss mice (22 to 28 g) were rendered neutropenic by injecting two doses of cyclophosphamide intraperitoneally, −4 day (150 mg/kg) and −1 day (100 mg/kg) prior to inoculation. Bloodstream infection was established by injecting intravenously 50 μL of early log-phase bacterial suspension (10^8-10^9 CFU/mL). The exact injection volume for each bacterial suspension was calculated based upon the OD value of the bacterial suspension and the desired inoculum for each isolate.
Solutions for administration of colistin, polymyxin B or the compounds were prepared at a concentration of 1 mg (free base) per mL in sterile 0.9% saline. At 2 h after inoculation, a mouse in the treatment groups was injected intravenously with one of the above solutions at 4 μL/g body weight (BW) (i.e. free base 4 mg/kg BW), while the same volume of saline was injected into the control mice. At 0 h or at 4 h after the administration of antibacterial drug or saline (control), animals were euthanised by inhalation of overdose isoflurane. The skin on the chest and fore-paws of each animal was thoroughly cleansed with 70% ethanol and Betadine®. The blood was collected via cardiac puncture using a 1-mL syringe rinsed with heparin (5,000 IU/mL), diluted serially in sterile 0.9% saline and plated on nutrient agar plates using a spiral plater.
The agar plates were incubated at 37° C. overnight. The bacterial colonies on the plate were counted and CFU/mL of the blood was calculated. The log10 CFU/mL of blood in each mouse was calculated. The in vivo activity of the compounds against the bacteria was calculated as the difference of the log10 CFU/mL values between the treated mice and the control mice at 4 h (Δ log=log10 (treated)CFU/mL−log10 (control)CFU/mL).
Any compound showing a decrease in bacterial loading (Δ log) of ≥2 at 4 h is considered to have good in vivo efficacy in this initial screening model.

CCCCCCCCC(=O)N[C@@H](CCN)C(=O)N[C@H](C(=O)N[C@@H](CN)C(=O)N[C@H]1CCNC(=O)[C@H]([C@@H](C)O)NC(=O)[C@H](CCN)NC(=O)[C@H](CCN)NC(=O)[C@H](CC)NC(=O)[C@@H](CC(C)C)NC(=O)[C@H](CCN)NC1=O)[C@@H](C)O [Compound 59] (Nonanoyl-[Dab]T[Dap][Dab][Dab][dL][Abu][Dab][Dab]T; lactam 4-C)
Minimum inhibitory concentration, Ec FADDI-EC001 [1]: 1 mg/L (≈ 0.887 µM)
Minimum inhibitory concentration, Ec FADDI-EC003 [1]: 1 mg/L (≈ 0.887 µM)
Minimum inhibitory concentration, Ec FADDI-EC006 [1]: 0.5 mg/L (≈ 0.443 µM)
MIC [2]: 2 mg/L (≈ 1.77 µM)
Minimum inhibitory concentration, Ab A ATCC 17978 [2]: 1 mg/L (≈ 0.887 µM)
Minimum inhibitory concentration, Ab ATCC 19606 [2]: 2 mg/L (≈ 1.77 µM)
Minimum inhibitory concentration, Ab FADDI-AB034 [2]: 0.5 mg/L (≈ 0.443 µM)
MIC [3]: 1 mg/L (≈ 0.887 µM)
Minimum inhibitory concentration, Pa ATCC 27853 [3]: 1 mg/L (≈ 0.887 µM)
Minimum inhibitory concentration, Pa FADDI-PA022 [3]: 2 mg/L (≈ 1.77 µM)
Minimum inhibitory concentration, Pa FADDI-PA025 [3]: 2 mg/L (≈ 1.77 µM)
MIC [4]: <0.125 mg/L
Δ log (Treated-Control at 4 h) [5]: −2.82 log10 CFU/mL

CC(C)C[C@H]1NC(=O)[C@H](CCN)NC(=O)[C@@H](NC(=O)[C@H](CN)NC(=O)[C@@H](NC(=O)[C@H](CCN)NC(=O)Cc2cccc(Cl)c2)[C@@H](C)O)CCNC(=O)[C@H]([C@@H](C)O)NC(=O)[C@H](CCN)NC(=O)[C@H](CCN)NC(=O)[C@H]([C@@H](C)O)NC1=O [Compound 61] ({Phenylacetyl(3-Cl)}-[Dab]T[Dap][Dab][Dab][dL]T[Dab][Dab]T; lactam 4-C)
Minimum inhibitory concentration, Ec FADDI-EC001 ([1]; Enterobacter cloacae FADDI-EC001, broth microdilution in CAMHB): 0.25 mg/L (≈ 0.216 µM)
Minimum inhibitory concentration, Ec FADDI-EC003 ([1]; Enterobacter cloacae FADDI-EC003, broth microdilution in CAMHB): 0.25 mg/L (≈ 0.216 µM)
Minimum inhibitory concentration, Ec FADDI-EC006 ([1]; Enterobacter cloacae FADDI-EC006, broth microdilution in CAMHB): 0.25 mg/L (≈ 0.216 µM)
MIC ([2]; A. baumannii ATCC 19606): 4 mg/L (≈ 3.46 µM)
Minimum inhibitory concentration, Ab A ATCC 17978 ([2]; Acinetobacter baumannii ATCC 17978, broth microdilution in CAMHB): 2 mg/L (≈ 1.73 µM)
Minimum inhibitory concentration, Ab ATCC 19606 ([2]; Acinetobacter baumannii ATCC 19606, broth microdilution in CAMHB): 4 mg/L (≈ 3.46 µM)
Minimum inhibitory concentration, Ab FADDI-AB034 ([2]; Acinetobacter baumannii FADDI-AB034, broth microdilution in CAMHB): 1 mg/L (≈ 0.865 µM)
MIC ([3]; P. aeruginosa ATCC 27853): 0.5 mg/L (≈ 0.433 µM)
Minimum inhibitory concentration, Pa ATCC 27853 ([3]; Pseudomonas aeruginosa ATCC 27853, broth microdilution in CAMHB): 0.5 mg/L (≈ 0.433 µM)
Minimum inhibitory concentration, Pa FADDI-PA022 ([3]; Pseudomonas aeruginosa FADDI-PA022, broth microdilution in CAMHB): 0.5 mg/L (≈ 0.433 µM)
Minimum inhibitory concentration, Pa FADDI-PA025 ([3]; Pseudomonas aeruginosa FADDI-PA025, broth microdilution in CAMHB): >32 mg/L
MIC ([4]; K. pneumoniae FADDI-KP032): 0.25 mg/L (≈ 0.216 µM)
Δ log (Treated-Control at 4 h) [5]: −4.75 log10 CFU/mL

CC(C)C[C@H]1NC(=O)[C@H](CCN)NC(=O)[C@@H](NC(=O)[C@H](CN)NC(=O)[C@@H](NC(=O)[C@H](CCN)NC(=O)Cc2ccc(Cl)cc2Cl)[C@@H](C)O)CCNC(=O)[C@H]([C@@H](C)O)NC(=O)[C@H](CCN)NC(=O)[C@H](CCN)NC(=O)[C@H]([C@@H](C)O)NC1=O [Compound 62] (X13-[Dab]T[Dap][Dab][Dab][dL]T[Dab][Dab]T; lactam 4-C)
Minimum inhibitory concentration, Ec FADDI-EC001 [1]: <0.125 mg/L
Minimum inhibitory concentration, Ec FADDI-EC003 [1]: <0.125 mg/L
Minimum inhibitory concentration, Ec FADDI-EC006 [1]: 0.25 mg/L (≈ 0.21 µM)
MIC [2]: 2 mg/L (≈ 1.68 µM)
Minimum inhibitory concentration, Ab A ATCC 17978 [2]: 1 mg/L (≈ 0.84 µM)
Minimum inhibitory concentration, Ab ATCC 19606 [2]: 2 mg/L (≈ 1.68 µM)
Minimum inhibitory concentration, Ab FADDI-AB034 [2]: 1 mg/L (≈ 0.84 µM)
MIC [3]: 0.5 mg/L (≈ 0.42 µM)
Minimum inhibitory concentration, Pa ATCC 27853 [3]: 0.5 mg/L (≈ 0.42 µM)
Minimum inhibitory concentration, Pa FADDI-PA022 [3]: 1 mg/L (≈ 0.84 µM)
Minimum inhibitory concentration, Pa FADDI-PA025 [3]: 1 mg/L (≈ 0.84 µM)
MIC [4]: 0.25 mg/L (≈ 0.21 µM)
Δ log (Treated-Control at 4 h) [5]: −2.69 log10 CFU/mL

CC[C@@H]1NC(=O)[C@@H](CC(C)C)NC(=O)[C@H](CCN)NC(=O)[C@@H](NC(=O)[C@H](CN)NC(=O)[C@@H](NC(=O)[C@H](CCN)NC(=O)Cc2ccc(Cl)cc2Cl)[C@@H](C)O)CCNC(=O)[C@H]([C@@H](C)O)NC(=O)[C@H](CCN)NC(=O)[C@H](CCN)NC1=O [Compound 70] (X13-[Dab]T[Dap][Dab][Dab][dL][Abu][Dab][Dab]T; lactam 4-C)
Minimum inhibitory concentration, Ec FADDI-EC001 [1]: 0.5 mg/L (≈ 0.426 µM)
Minimum inhibitory concentration, Ec FADDI-EC003 [1]: 0.25 mg/L (≈ 0.213 µM)
Minimum inhibitory concentration, Ec FADDI-EC006 [1]: 0.5 mg/L (≈ 0.426 µM)
MIC [2]: 0.5 mg/L (≈ 0.426 µM)
Minimum inhibitory concentration, Ab A ATCC 17978 [2]: 0.5 mg/L (≈ 0.426 µM)
Minimum inhibitory concentration, Ab ATCC 19606 [2]: 0.5 mg/L (≈ 0.426 µM)
Minimum inhibitory concentration, Ab FADDI-AB034 [2]: 1 mg/L (≈ 0.852 µM)
MIC [3]: 1 mg/L (≈ 0.852 µM)
Minimum inhibitory concentration, Pa ATCC 27853 [3]: 1 mg/L (≈ 0.852 µM)
Minimum inhibitory concentration, Pa FADDI-PA022 [3]: 1 mg/L (≈ 0.852 µM)
Minimum inhibitory concentration, Pa FADDI-PA025 [3]: 2 mg/L (≈ 1.7 µM)
MIC [4]: 0.25 mg/L (≈ 0.213 µM)
Δ log (Treated-Control at 4 h) [5]: −3.11 log10 CFU/mL

CC[C@@H]1NC(=O)[C@@H](CC(C)C)NC(=O)[C@H](CCN)NC(=O)[C@@H](NC(=O)[C@H](CN)NC(=O)[C@@H](NC(=O)[C@H](CCN)NC(=O)Cc2ccc(Cl)cc2)[C@@H](C)O)CCNC(=O)[C@H]([C@@H](C)O)NC(=O)[C@H](CCN)NC(=O)[C@H](CCN)NC1=O [Compound 77] ({Phenylacetyl(4-Cl)}-[Dab]T[Dap][Dab][Dab][dL][Abu][Dab][Dab]T; lactam 4-C)
Minimum inhibitory concentration, Ec FADDI-EC001 [1]: 0.5 mg/L (≈ 0.439 µM)
Minimum inhibitory concentration, Ec FADDI-EC003 [1]: <0.125 mg/L
Minimum inhibitory concentration, Ec FADDI-EC006 [1]: 0.25 mg/L (≈ 0.219 µM)
MIC [2]: 4 mg/L (≈ 3.51 µM)
Minimum inhibitory concentration, Ab A ATCC 17978 [2]: 0.5 mg/L (≈ 0.439 µM)
Minimum inhibitory concentration, Ab ATCC 19606 [2]: 4 mg/L (≈ 3.51 µM)
Minimum inhibitory concentration, Ab FADDI-AB034 [2]: 1 mg/L (≈ 0.877 µM)
MIC [3]: 0.25 mg/L (≈ 0.219 µM)
Minimum inhibitory concentration, Pa ATCC 27853 [3]: 0.25 mg/L (≈ 0.219 µM)
Minimum inhibitory concentration, Pa FADDI-PA022 [3]: 0.5 mg/L (≈ 0.439 µM)
Minimum inhibitory concentration, Pa FADDI-PA025 [3]: 4 mg/L (≈ 3.51 µM)
MIC [4]: <0.125 mg/L
Δ log (Treated-Control at 4 h) [5]: −2.28 log10 CFU/mL

CC[C@@H]1NC(=O)[C@@H](CC(C)C)NC(=O)[C@H](CCN)NC(=O)[C@@H](NC(=O)[C@H](CN)NC(=O)[C@@H](NC(=O)[C@H](CCN)NC(=O)c2ccc(C)c(C)c2)[C@@H](C)O)CCNC(=O)[C@H]([C@@H](C)O)NC(=O)[C@H](CCN)NC(=O)[C@H](CCN)NC1=O [Compound 83] (X14-[Dab]T[Dap][Dab][Dab][dL][Abu][Dab][Dab]T; lactam 4-C)
Minimum inhibitory concentration, Ec FADDI-EC001 [1]: 0.25 mg/L (≈ 0.223 µM)
Minimum inhibitory concentration, Ec FADDI-EC003 [1]: 0.25 mg/L (≈ 0.223 µM)
Minimum inhibitory concentration, Ec FADDI-EC006 [1]: 0.25 mg/L (≈ 0.223 µM)
MIC [2]: 2 mg/L (≈ 1.79 µM)
Minimum inhibitory concentration, Ab A ATCC 17978 [2]: 1 mg/L (≈ 0.893 µM)
Minimum inhibitory concentration, Ab ATCC 19606 [2]: 2 mg/L (≈ 1.79 µM)
Minimum inhibitory concentration, Ab FADDI-AB034 [2]: 0.5 mg/L (≈ 0.447 µM)
MIC [3]: 1 mg/L (≈ 0.893 µM)
Minimum inhibitory concentration, Pa ATCC 27853 [3]: 1 mg/L (≈ 0.893 µM)
Minimum inhibitory concentration, Pa FADDI-PA022 [3]: 1 mg/L (≈ 0.893 µM)
Minimum inhibitory concentration, Pa FADDI-PA025 [3]: 2 mg/L (≈ 1.79 µM)
MIC [4]: 0.25 mg/L (≈ 0.223 µM)
Δ log (Treated-Control at 4 h) [5]: −3.63 log10 CFU/mL
